Source: ChEMBL document CHEMBL1151124, “Photodiode Array Detection and Structures of Griseolic Acid Analogues from Culture Broth” (J Nat Prod, 1988)
The source made the active and inactive calls. No cut-off for these calls is given here.

assay: Inhibition of cAMP-specific 3',5'-cyclic phosphodiesterase

| Activity | Compound |
| --- | --- |
| Active | Nc1ncnc2c1ncn2[C@@H]1O[C@@H]2C[C@](CC(=O)O)(C(=O)O)O[C@H]2[C@H]1O |
| inactive | Nc1ncnc2c1ncn2[C@@H]1O[C@H](C[C@@H](CC(=O)O)C(=O)O)[C@@H](O)[C@H]1O |
| Active | Nc1ncnc2c1ncn2[C@@H]1OC2=C[C@@](C(=O)O)(C(O)C(=O)O)O[C@H]2[C@H]1O (some centres undefined) |
| Active | Nc1ncnc2c1ncn2[C@@H]1OC2=C[C@](CC(=O)O)(C(=O)O)O[C@H]2[C@H]1O |
